SMILES strings stand for the structures.

From patent US6861448B2, “NAD synthetase inhibitors and uses thereof” (priority 1998, dated 2005) come the findings set out here.

Sequence of NAD synthetase (P08164 whole entry): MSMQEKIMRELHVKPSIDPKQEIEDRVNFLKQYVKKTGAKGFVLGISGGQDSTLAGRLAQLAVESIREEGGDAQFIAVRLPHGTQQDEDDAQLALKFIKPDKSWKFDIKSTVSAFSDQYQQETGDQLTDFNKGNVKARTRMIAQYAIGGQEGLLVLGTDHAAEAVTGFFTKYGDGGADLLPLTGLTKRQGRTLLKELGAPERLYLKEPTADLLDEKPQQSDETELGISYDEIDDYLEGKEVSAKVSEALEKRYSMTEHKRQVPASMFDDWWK

The target in the experiment is NAD synthetase (Bacillus subtilis, UniProt P08164). In words: NAD synthetase coupled enzyme assay. The settings on record: NAD synthetase 2.0 μg/mL; 0.1 mM NaAD; 0.2 mM ATP; pH 8.5. It counts as biochemical. The source says:
This Example illustrates the NAD synthetase enzyme inhibiting activity of some compounds of the present invention. [drawing 48] The coupled assay—production of NAD was monitored through conversion to NADH by alcohol dehydrogenase. [NADH] was monitored by 2 parallel methods: the change in absorbance at 340 nm, and fluorescence at 460 nm (excitation 320 nm). […] Controls were included for determining inhibitor background, precipitation, and ADH inhibition.
Take `C[N+](C)(C)C(Cc1ccccc1)C(=O)OCCCCCCCCOc1ccc2c(c1)C(=O)CC(c1ccccc1)O2` (mixture of isomers) [Compound 1370]: 16.9 µM corresponded to half-maximal inhibition (IC50).

As for `C[N+](C)(C)c1ccc(CC(=O)OCCCCCCCCn2ccc3cccc(OCc4ccccc4)c32)cc1` [Compound 1127], the half-inhibitory concentration (IC50) – broadly, the concentration at which inhibition is half-maximal – is 23 µM.

For `C[N+](C)(C)c1ccc(CC(=O)OCCCCCCCCOc2cccc(OCc3ccccc3)c2)cc1` [Compound 1169], half-maximal inhibition (IC50) required 36.2 µM.

`COC(=O)c1ccc(OCCCCCCCCOC(=O)Cc2ccc([N+](C)(C)C)cc2)cc1OCc1ccccc1` [Compound 1186] gave an IC50 of 46.1 µM.

On to `C[N+](C)(C)c1ccc(CCCC(=O)OCCCCCCCCOc2ccc(OCc3ccccc3)cc2)cc1` [Compound 1264], for which half-maximal inhibition (IC50) was put at 38.1 µM.

The compound `C[N+](C)(C)c1ccc(CC(=O)OCCCCCCCCCOc2ccc(OCc3ccccc3)cc2)cc1` [Compound 1321] had an IC50 of 22 µM.

Compound `C[N+](C)(C)c1ccc(CC(=O)OCCCCCCCCCCCOc2ccc(OCc3ccccc3)cc2)cc1` [Compound 1323] yielded an IC50 of 48.2 µM.

On to `C[N+]1([C@@H](Cc2ccccc2)C(=O)OCCCCCCCCOc2ccc(OCc3ccccc3)cc2)CCCC1` [Compound 1336], for which it took 19.4 µM to reach half-maximal inhibition (IC50).

In turn, `C[N+]1([C@@H](Cc2ccccc2)C(=O)OCCCCCCCCOc2ccc(OCc3ccccc3)cc2)CCCCC1` [Compound 1337] gave an IC50 of 20.3 µM.

`C[N+](C)(C)C(Cc1ccccc1)C(=O)OCCCCCCCCOc1ccc(OCc2ccccc2)cc1` (stereo not shown) [Compound 1338] yielded an IC50 of 23 µM. This IC50 and that of the compound before are within 1.5-fold of each other.

The compound `C[N+](C)(C1CCOCC1)[C@@H](Cc1ccccc1)C(=O)OCCCCCCCCOc1ccc(OCc2ccccc2)cc1` [Compound 1358] displayed an IC50 of 46.6 µM.

`C[N+](C)(C)c1ccc(CC(=O)OCCCCCCCOC(=O)c2ccc(OCc3ccccc3)cc2)cc1` [Compound 1359] returned an IC50 of 42.2 µM.

`C[N+](C)(C)[C@@H](Cc1ccccc1)C(=O)OCCCCCCCCOc1ccc2oc(-c3ccccc3)cc(=O)c2c1` [Compound 1371] returned an IC50 of 19.1 µM.

Compound `COc1ccccc1COc1ccc(OCCCCCCCCOC(=O)C(Cc2ccccc2)[N+](C)(C)C)cc1` (stereo not shown) [Compound 1387] yielded a half-inhibitory concentration (IC50) of 20.5 µM.

On to `COc1cccc(COc2ccc(OCCCCCCCCOC(=O)C(Cc3ccccc3)[N+](C)(C)C)cc2)c1` (stereo not shown) [Compound 1388], for which the IC50 amounted to 14.5 µM.

The compound `COc1ccc(COc2ccc(OCCCCCCCCOC(=O)C(Cc3ccccc3)[N+](C)(C)C)cc2)cc1` (stereo not shown) [Compound 1389] displayed an IC50 of 45.5 µM.

`C[N+](C)(C)C(Cc1ccccc1)C(=O)OCCCCCCCCOc1ccc(OCc2ccccc2Cl)cc1` (stereo not shown) [Compound 1390] gave an IC50 of 14.2 µM. This IC50 is about 3.2-fold lower than that of the compound before.

`COc1ccccc1COc1ccc(OCCCCCCCCOC(=O)Cc2ccc([N+](C)(C)C)cc2)cc1` [Compound 1393] came in with an IC50 of 36.7 µM.

Compound `C[N+](C)(C)c1ccc(CC(=O)OCCCCCCCCOc2ccc(OCc3ccccc3Cl)cc2)cc1` [Compound 1396] returned a concentration for half-maximal inhibition (IC50) of 15.1 µM. This IC50 is about 2.4-fold lower than that of the compound before.

With `C[N+](C)(C)c1ccc(CC(=O)OCCCCCCCCOc2ccc(OCc3cccc(Cl)c3)cc2)cc1` [Compound 1397], the IC50 was found to be 16.9 µM. The IC50 values of the last two compounds are within 1.5-fold of each other.

Turning to `C[N+](C)(C)C(Cc1ccc([N+](=O)[O-])cc1)C(=O)OCCCCCCCCOc1ccc(OCc2ccccc2)cc1` (stereo not shown) [Compound 1405], the IC50 was 18.8 µM.

`C[N+](C)(C)C(Cc1ccccc1)C(=O)OCCCCCCCn1ccc2cc(OCc3ccccc3)ccc21` (stereo not shown) [Compound 1408]: the IC50 worked out at 30.5 µM. This IC50 is about 1.6-fold higher than that of the compound before.

Turning to `C[N+](C)(C)c1ccc(CC(=O)NCCCCCCCCOc2ccc(OCc3cccc(Cl)c3)cc2)cc1` [Compound 1421], inhibition was half-maximal at 34.8 µM (IC50).

In the case of `C[n+]1cccc(C(=O)NCCCCCCCCOc2ccc(OCc3cccc(Cl)c3)cc2)c1` [Compound 1422], inhibition was half-maximal at 27.9 µM (IC50).

The compound `C[N+](C)(C)C(Cc1ccccc1)C(=O)OCCCCCCCCOc1ccc(OC(=O)c2ccccc2)cc1` (stereo not shown) [Compound 1431] registered a concentration for half-maximal inhibition (IC50) of 18.2 µM.

On to `CC[N+]1([C@@H](Cc2ccccc2)C(=O)OCCCCCCCCOc2ccc(OCc3ccccc3)cc2)CCCC1` [Compound 1442], for which 21.4 µM corresponded to half-maximal inhibition (IC50).

As to `CCC[N+]1([C@@H](Cc2ccccc2)C(=O)OCCCCCCCCOc2ccc(OCc3ccccc3)cc2)CCCC1` [Compound 1443], inhibition was half-maximal at 27.9 µM (IC50). The IC50 values of the last two compounds are within 1.5-fold of each other.

In turn, `C[n+]1cccc(C(=O)NCCCCCCCCOc2ccc3c(c2)C(=O)CC(c2ccccc2)O3)c1` (stereo not shown) [Compound 1448] returned a half-inhibitory concentration (IC50) of 30.7 µM.

The compound `CC(=O)Oc1ccc(C(=O)Oc2ccc(OCCCCCCCCOC(=O)C(Cc3ccccc3)[N+](C)(C)C)cc2)cc1` (stereo not shown) [Compound 1475] returned an IC50 of 22.6 µM.

For `CC(C)Oc1ccc(C(=O)Oc2ccc(OCCCCCCCCOC(=O)C(Cc3ccccc3)[N+](C)(C)C)cc2)cc1` (stereo not shown) [Compound 1477], the IC50 stood at 14 µM.

For `CSc1ccc(C(=O)Oc2ccc(OCCCCCCCCOC(=O)C(Cc3ccccc3)[N+](C)(C)C)cc2)cc1` (stereo not shown) [Compound 1478], half-maximal inhibition (IC50) required 15.8 µM.

`C[N+](C)(C)C(Cc1ccccc1)C(=O)OCCCCCCCCOc1ccc(OC(=O)c2ccc(C#N)cc2)cc1` (stereo not shown) [Compound 1479]: the midpoint of inhibition, the IC50, lay at 18.6 µM. This IC50 and that of the compound before are within 1.5-fold of each other.

`CC(=O)Nc1ccc(C(=O)Oc2ccc(OCCCCCCCCOC(=O)C(Cc3ccccc3)[N+](C)(C)C)cc2)cc1` (stereo not shown) [Compound 1482] gave an IC50 of 26.2 µM.

As for `C[N+](C)(C)C(Cc1ccccc1)C(=O)OCCCCCCCCOc1ccc(OC(=O)c2ccc(S(N)(=O)=O)cc2)cc1` (stereo not shown) [Compound 1485], it took 34.8 µM to reach half-maximal inhibition (IC50).

In turn, `C[N+](C)(C)C(Cc1ccccc1)C(=O)OCCCCCCCCOc1ccc(OC(=O)c2ccc(-n3ccnc3)cc2)cc1` (stereo not shown) [Compound 1486] returned an IC50 of 37.8 µM.

In the case of `C[N+](C)(C)[C@@H](Cc1c[nH]c2ccccc12)C(=O)OCCCCCCCCOc1ccc(OCc2ccccc2)cc1` [Compound 1491], the IC50 is 19.9 µM.

In the case of `CC(C)(C)OC(=O)C(Cc1cn(CCCCCCCCOc2ccc(OCc3ccccc3)cc2)c2ccccc12)[N+](C)(C)C` (stereo not shown) [Compound 1494], half-maximal inhibition (IC50) required 12.5 µM.

In the case of `C[N+]1([C@@H](Cc2ccccc2)C(=O)NCCCCCCCCOc2ccc(OCc3ccccc3)cc2)CCCC1` [Compound 1495], the IC50 worked out at 33.4 µM.

`CN(C)[C@@H](Cc1ccccc1)C[N+](C)(C)CCCCCCCCOc1ccc(OCc2ccccc2)cc1` [Compound 1498] displayed an IC50 of 39.4 µM.

As for `CN(CCCCCCCCOc1ccc(OCc2ccccc2)cc1)C[C@H](Cc1ccccc1)[N+](C)(C)C` [Compound 1499], half-maximal inhibition (IC50) was put at 26.8 µM.

The compound `CC[N+]1([C@@H](Cc2ccccc2)C(=O)NCCCCCCCCOc2ccc(OCc3ccccc3)cc2)CCCC1` [Compound 1501] registered an IC50 of 38.2 µM.

Take `CCC[N+]1([C@@H](Cc2ccccc2)C(=O)NCCCCCCCCOc2ccc(OCc3ccccc3)cc2)CCCC1` [Compound 1502]: the half-maximal inhibitory concentration (IC50) is 35.6 µM.

The compound `C[N+](C)(C)C(Cc1ccccc1)C(=O)NCCCCCCCCOc1ccc(OC(=O)c2ccccc2F)cc1` (stereo not shown) [Compound 1596] had an IC50 of 28 µM.

As to `C[N+](C)(C)C(Cc1ccccc1)C(=O)NCCCCCCCCOc1ccc(OC(=O)c2cccc(F)c2)cc1` (stereo not shown) [Compound 1597], inhibition was half-maximal at 21.3 µM (IC50).

`CC(=O)Oc1ccc(C(=O)Oc2ccc(OCCCCCCCCNC(=O)C(Cc3ccccc3)[N+](C)(C)C)cc2)cc1` (stereo not shown) [Compound 1599]: the half-maximal inhibitory concentration (IC50) came out at 44 µM. This IC50 lies about 2.1-fold higher than the previous one.

Consider `CC(C)Oc1ccc(C(=O)Oc2ccc(OCCCCCCCCNC(=O)C(Cc3ccccc3)[N+](C)(C)C)cc2)cc1` (stereo not shown) [Compound 1600], for which inhibition was half-maximal at 28.7 µM (IC50).

Turning to `C[N+](C)(C)C(Cc1ccccc1)C(=O)NCCCCCCCCOc1ccc(OC(=O)c2cccc(Cl)c2Cl)cc1` (stereo not shown) [Compound 1603], it took 34.9 µM to reach half-maximal inhibition (IC50).

Compound `C[N+](C)(C)C(Cc1ccccc1)C(=O)NCCCCCCCCOc1ccc(OC(=O)c2ccc(Cl)cc2Cl)cc1` (stereo not shown) [Compound 1604] yielded an IC50 of 21.1 µM.

`C[N+](C)(C)C(Cc1ccccc1)C(=O)NCCCCCCCCOc1ccc(OC(=O)c2cc(Cl)ccc2Cl)cc1` (stereo not shown) [Compound 1605] gave an IC50 of 21 µM. The IC50 values of the last two compounds are within 1.5-fold of each other.

Turning to `C[N+](C)(C)C(Cc1ccccc1)C(=O)NCCCCCCCCOc1ccc(OC(=O)c2c(Cl)cccc2Cl)cc1` (stereo not shown) [Compound 1606], half-maximal inhibition (IC50) was put at 39.1 µM.

`C[N+](C)(C)C(Cc1ccccc1)C(=O)NCCCCCCCCOc1ccc(OC(=O)c2cc(Cl)cc(Cl)c2)cc1` (stereo not shown) [Compound 1608] came in with a concentration for half-maximal inhibition (IC50) of 26.3 µM.

For `C[N+](C)(C)C(Cc1ccccc1)C(=O)NCCCCCCCCOc1ccc(OC(=O)c2cccc(F)c2F)cc1` (stereo not shown) [Compound 1609], the IC50 turned out to be 20.7 µM.

The compound `C[N+](C)(C)C(Cc1ccccc1)C(=O)NCCCCCCCCOc1ccc(OC(=O)c2ccc(F)cc2F)cc1` (stereo not shown) [Compound 1610] gave an IC50 of 30.4 µM. The IC50 values of the last two compounds are within 1.5-fold of each other.

Compound `C[N+](C)(C)C(Cc1ccccc1)C(=O)NCCCCCCCCOc1ccc(OC(=O)c2cc(F)ccc2F)cc1` (stereo not shown) [Compound 1611] had an IC50 of 23.3 µM.

Take `C[N+](C)(C)C(Cc1ccccc1)C(=O)NCCCCCCCCOc1ccc(OC(=O)c2ccc(F)c(F)c2)cc1` (stereo not shown) [Compound 1613]: 19.1 µM corresponded to half-maximal inhibition (IC50).

Turning to `C[N+](C)(C)C(Cc1ccccc1)C(=O)NCCCCCCCCOc1ccc(OC(=O)c2cc(F)cc(F)c2)cc1` (stereo not shown) [Compound 1614], the IC50 was determined as 23.1 µM. The IC50 values of the last two compounds are within 1.5-fold of each other.

The compound `C[N+](C)(C)C(Cc1ccccc1)C(=O)NCCCCCCCCOc1ccc(OC(=O)c2cc(Cl)cc(Cl)c2Cl)cc1` (stereo not shown) [Compound 1615] showed a half-maximal inhibitory concentration (IC50) of 22.3 µM.

As to `C[N+](C)(C)C(Cc1ccccc1)C(=O)NCCCCCCCCOc1ccc(OC(=O)c2c(Cl)cc(Cl)cc2Cl)cc1` (stereo not shown) [Compound 1616], the IC50 worked out at 38.5 µM.

Regarding `C[N+](C)(C)C(Cc1ccccc1)C(=O)NCCCCCCCCOc1ccc(OC(=O)c2cc(F)c(F)cc2F)cc1` (stereo not shown) [Compound 1619], the IC50 stood at 22.3 µM. This IC50 is about 1.7-fold lower than that of the compound before.

`C[N+](C)(C)C(Cc1ccccc1)C(=O)NCCCCCCCCOc1ccc(OC(=O)c2c(F)cc(F)cc2F)cc1` (stereo not shown) [Compound 1620] gave an IC50 of 21.9 µM.

The compound `C[N+](C)(C)C(Cc1ccccc1)C(=O)NCCCCCCCCOc1ccc(OC(=O)c2cc(F)c(F)c(F)c2)cc1` (stereo not shown) [Compound 1621] had an IC50 of 25.5 µM.
